Test results reported in patent US4272437A, “Antibacterial agents, and 4-thio azetidinone intermediates” (priority 1979, dated 1981).
In brackets after ≈: the same amount, converted by molar mass. Read-outs that look alike come from different tables or passages of the source.

Assays:
E. coli A-20341-1 = test: MIC, tube dilution, Escherichia coli A20341-1; format: cell-based
Description: (§1) Representative compounds of the present invention were subjected to in vitro antibiotic screening against a variety of microorganisms.

[1] = test system: Staph. aureus (Pen-Res) A-9606; test: MIC, tube dilution, Staphylococcus aureus A9606 (Pen-Res); format: cell-based; settings: Staph. aureus A9606 (Pen-Res), overnight 37° C.; for MIC: Staphylococcus aureus, read-out: Minimum Inhibitory Concentration (M.I.C.)
Description: as §1

Pr. morganii A-15153 = test: MIC, tube dilution, Proteus morganii A15153; format: cell-based; settings: overnight 37° C.; for MIC: Morganella morganii, A15153, Proteus morganii A15153, read-out: Minimum Inhibitory Concentration (M.I.C.)
Description: as §1

[2] = test system: Klebsiella species A20468; test: MIC, tube dilution, Klebsiella species A20468; format: cell-based; settings: Klebsiella species (K. pneumoniae) A20468, overnight 37° C.; for MIC: read-out: Minimum Inhibitory Concentration (M.I.C.)
Description: as §1

E. coli A-15119 = test: MIC, tube dilution, Escherichia coli A15119; format: cell-based; settings: overnight 37° C.; for MIC: Escherichia coli, A15119, E. coli A15119, read-out: Minimum Inhibitory Concentration (M.I.C.)
Description: as §1

[3] = test system: Staph. aureus (Meth-Res) A-15097; test: MIC, tube dilution, Staphylococcus aureus A15097 (Meth-Res); format: cell-based; settings: Staph. aureus A15097 (Meth-Res), overnight 37° C.; for MIC: Staphylococcus aureus, read-out: Minimum Inhibitory Concentration (M.I.C.)
Description: as §1

K. pneumoniae A-15130 = test: MIC, tube dilution, Klebsiella pneumoniae A15130; format: cell-based; settings: overnight 37° C.; for MIC: Klebsiella pneumoniae, A15130, K. pneumoniae A15130, read-out: Minimum Inhibitory Concentration (M.I.C.)
Description: as §1

Ser. marcescens A-20019 = test: MIC, tube dilution, Serratia marcescens A20019; format: cell-based; settings: overnight 37° C.; for MIC: Serratia marcescens, A20019, Serratia marcescens A20019, read-out: Minimum Inhibitory Concentration (M.I.C.)
Description: as §1

Ent. cloacae A-9656 = test: MIC, tube dilution, Enterobacter cloacae A9656; format: cell-based; settings: overnight 37° C.; for MIC: read-out: Minimum Inhibitory Concentration (M.I.C.)
Description: as §1

[4] = test system: Staph. aureus A-9537 and 50% serum; test: MIC, tube dilution, Staph. aureus A9537 + 50% serum; format: cell-based, Staphylococcus aureus; settings: overnight 37° C.; for MIC: Staphylococcus aureus, read-out: Minimum Inhibitory Concentration (M.I.C.)
Description: as §1

Ps. aeruginosa A-9843A = test: MIC, tube dilution, Pseudomonas aeruginosa A9843A; format: cell-based; settings: overnight 37° C.; for MIC: Pseudomonas aeruginosa, A9843A, read-out: Minimum Inhibitory Concentration (M.I.C.), Pseudomonas aeruginosa A9843A
Description: as §1

Str. faecalis A-20688 = test: MIC, tube dilution, Streptococcus faecalis A20688; format: cell-based; settings: overnight 37° C.; for MIC: Enterococcus faecalis, A20688, Str. faecalis A20688, read-out: Minimum Inhibitory Concentration (M.I.C.)
Description: as §1

Ps. aeruginosa A-21213 = test: MIC, tube dilution, Pseudomonas aeruginosa A21213; format: cell-based; settings: overnight 37° C.; for MIC: read-out: Minimum Inhibitory Concentration (M.I.C.)
Description: as §1

Staph. aureus A-9537 = test: MIC, tube dilution, Staphylococcus aureus A9537; format: cell-based; settings: overnight 37° C., Nutrient Broth; for MIC: Staphylococcus aureus, A9537, Staph. aureus A9537, read-out: Minimum Inhibitory Concentration (M.I.C.)
Description: as §1

Str. pneumoniae A-9585 = test: MIC, tube dilution, Streptococcus pneumoniae A9585; format: cell-based; settings: overnight 37° C., Nutrient Broth; for MIC: Streptococcus pneumoniae, A9585, Str. pneumoniae A9585, read-out: Minimum Inhibitory Concentration (M.I.C.)
Description: as §1

Pr. mirabilis A-9900 = test: MIC, tube dilution, Proteus mirabilis A9900; format: cell-based; settings: overnight 37° C.; for MIC: Proteus mirabilis, A9900, Proteus mirabilis A9900, read-out: Minimum Inhibitory Concentration (M.I.C.)
Description: as §1

Str. pyogenes A-9604 = test: MIC, tube dilution, Streptococcus pyogenes A9604; format: cell-based; settings: overnight 37° C., Nutrient Broth; for MIC: Streptococcus pyogenes, A9604, Str. pyogenes A9604, read-out: Minimum Inhibitory Concentration (M.I.C.)
Description: as §1

Proteus rettgeri A21203 = test: MIC, tube dilution, Proteus rettgeri A21203; format: cell-based; settings: overnight 37° C.; for MIC: Providencia rettgeri, read-out: Minimum Inhibitory Concentration (M.I.C.)
Description: as §1

Ent. cloacae A-9659 = test: MIC, tube dilution, Enterobacter cloacae A9659; format: cell-based; settings: overnight 37° C.; for MIC: Enterobacter cloacae, A9659, Enterobacter cloacae A9659, read-out: Minimum Inhibitory Concentration (M.I.C.)
Description: as §1

Proteus vulgaris A21559 = test: MIC, tube dilution, Proteus vulgaris A21559; format: cell-based; settings: for MIC: Proteus vulgaris
Description: as §1

[5] = Escherichia coli, A203411, E. coli A20341-1; overnight 37° C.; read-out: Minimum Inhibitory Concentration (M.I.C.)
[6] = Enterobacter cloacae, A9656, Enterobacter cloacae A9656
[7] = Pseudomonas aeruginosa, A21213, Pseudomonas aeruginosa A21213
[8] = A21203, Proteus rettgeri A21203
[9] = A21559, Proteus vulgaris A21559, overnight 37° C., read-out: Minimum Inhibitory Concentration (M.I.C.)

| SMILES | MIC (E. coli A-20341-1; [5]) [µg/mL] | MIC [1] [µg/mL] | MIC (Pr. morganii A-15153) [µg/mL] | MIC [2] [µg/mL] | MIC (E. coli A-15119) [µg/mL] | MIC [3] [µg/mL] | MIC (K. pneumoniae A-15130) [µg/mL] | MIC (Ser. marcescens A-20019) [µg/mL] | MIC (Ent. cloacae A-9656; [6]) [µg/mL] | MIC [4] [µg/mL] | MIC (Ps. aeruginosa A-9843A) [µg/mL] | MIC (Str. faecalis A-20688) [µg/mL] | MIC (Ps. aeruginosa A-21213; [7]) [µg/mL] | MIC (Staph. aureus A-9537) [µg/mL] | MIC (Str. pneumoniae A-9585) [µg/mL] | MIC (Pr. mirabilis A-9900) [µg/mL] | MIC (Str. pyogenes A-9604) [µg/mL] | MIC (Proteus rettgeri A21203; [8]) [µg/mL] | MIC (Ent. cloacae A-9659) [µg/mL] | MIC (Proteus vulgaris A21559; [9]) [µg/mL] | further results |
| --- | --- | --- | --- | --- | --- | --- | --- | --- | --- | --- | --- | --- | --- | --- | --- | --- | --- | --- | --- | --- | --- |
| NC1CCC(C2=C(C(=O)O)N3C(=O)C[C@H]3S2)C1 (single isomer, unassigned) [98 isomer C, 2-(3-Aminocyclopentyl)-penem-3-carboxylic acid] |  |  |  |  |  |  |  |  |  |  |  |  |  |  |  |  |  |  |  |  | Minimum Inhibitory Concentration (M.I.C.) (E. coli A-20341-1; E. coli A20341-1; overnight 37° C.): 16 µg/mL; Minimum Inhibitory Concentration (M.I.C.) [1]: > 63 µg/mL; Minimum Inhibitory Concentration (M.I.C.) (Pr. morganii A-15153; Proteus morganii A15153): 16 µg/mL; Minimum Inhibitory Concentration (M.I.C.) [2]: > 63 µg/mL; Minimum Inhibitory Concentration (M.I.C.) (E. coli A-15119; E. coli A15119): 2 µg/mL; Minimum Inhibitory Concentration (M.I.C.) [3]: > 63 µg/mL; Minimum Inhibitory Concentration (M.I.C.) (K. pneumoniae A-15130; K. pneumoniae A15130): 8 µg/mL; Minimum Inhibitory Concentration (M.I.C.) (Ser. marcescens A-20019; Serratia marcescens A20019): 8 µg/mL; Minimum Inhibitory Concentration (M.I.C.) (Ent. cloacae A-9656; Enterobacter cloacae A9656): 8 µg/mL; Minimum Inhibitory Concentration (M.I.C.) [4]: 4 µg/mL; Minimum Inhibitory Concentration (M.I.C.) (Ps. aeruginosa A-9843A; Pseudomonas aeruginosa A9843A): 32 µg/mL; Minimum Inhibitory Concentration (M.I.C.) (Str. faecalis A-20688; Str. faecalis A20688): 32 µg/mL; Minimum Inhibitory Concentration (M.I.C.) (Ps. aeruginosa A-21213; Pseudomonas aeruginosa A21213): > 63 µg/mL; Minimum Inhibitory Concentration (M.I.C.) (Staph. aureus A-9537; Staph. aureus A9537): .13 µg/mL; Minimum Inhibitory Concentration (M.I.C.) (Str. pneumoniae A-9585; Str. pneumoniae A9585): .06 µg/mL; Minimum Inhibitory Concentration (M.I.C.) (Pr. mirabilis A-9900; Proteus mirabilis A9900): 8 µg/mL; Minimum Inhibitory Concentration (M.I.C.) (Str. pyogenes A-9604; Str. pyogenes A9604): .06 µg/mL; Minimum Inhibitory Concentration (M.I.C.) (Proteus rettgeri A21203; Proteus rettgeri A21203): 4 µg/mL; Minimum Inhibitory Concentration (M.I.C.) (Ent. cloacae A-9659; Enterobacter cloacae A9659): 16 µg/mL; Minimum Inhibitory Concentration (M.I.C.) (Proteus vulgaris A21559; Proteus vulgaris A21559, overnight 37° C.): 16 µg/mL |
| CC(N)=NCC1=C(C(=O)O)N2C(=O)CC2S1 (centres unmarked) [16 (5)] | > 63 | 32 (≈ 133 µM) | 16 (≈ 66.3 µM) | > 63 | 16 (≈ 66.3 µM) | 63 (≈ 261 µM) | 63 (≈ 261 µM) | 32 (≈ 133 µM) | 63 (≈ 261 µM) | 32 | 16 (≈ 66.3 µM) | > 63 | 32 (≈ 133 µM) | 4 (≈ 16.6 µM) | 1 (≈ 4.14 µM) | 8 (≈ 33.2 µM) | 2 (≈ 8.29 µM) | 32 (≈ 133 µM) | 63 (≈ 261 µM) | 63 (≈ 261 µM) |  |
| NC=NCC1=C(C(=O)O)N2C(=O)CC2S1 (centres unmarked) [16 (6)] | 125 (≈ 550 µM) | 125 (≈ 550 µM) | 32 (≈ 141 µM) | > 125 | 16 (≈ 70.4 µM) | 63 (≈ 277 µM) | 125 (≈ 550 µM) | 63 (≈ 277 µM) | 63 (≈ 277 µM) | 63 | 32 (≈ 141 µM) | 125 (≈ 550 µM) | > 125 | 4 (≈ 17.6 µM) | 2 (≈ 8.8 µM) | 16 (≈ 70.4 µM) | 4 (≈ 17.6 µM) | 32 (≈ 141 µM) | 63 (≈ 277 µM) | 32 (≈ 141 µM) |  |
| CC(N)C1=C(C(=O)O)N2C(=O)CC2S1 (centres unmarked) [Example 72, 2-(1'-Aminoethyl)-penem-3-carboxylic Acid] |  | 32 (≈ 149 µM) | > 125 | > 125 | 125 (≈ 583 µM) | 63 (≈ 294 µM) | > 125 | > 125 |  | 63 | > 125 | > 125 |  | 4 (≈ 18.7 µM) | 1 (≈ 4.67 µM) | 125 (≈ 583 µM) | 2 (≈ 9.34 µM) |  | > 125 |  | MIC (E. coli A-20341-1; Escherichia coli, A203411; E. coli A20341-1; overnight 37° C.; read-out: Minimum Inhibitory Concentration (M.I.C.)): > 125 µg/mL; MIC (Ent. cloacae A-9656; Enterobacter cloacae A9656): > 125 µg/mL; MIC (Ps. aeruginosa A-21213; Pseudomonas aeruginosa A21213): > 125 µg/mL; MIC (Proteus rettgeri A21203; Proteus rettgeri A21203): 125 µg/mL (≈ 583 µM); MIC (Proteus vulgaris A21559; A21559, read-out: Minimum Inhibitory Concentration (M.I.C.)): 125 µg/mL (≈ 583 µM) |
